The test system of this assay is P388 leukemia ip, CD2F1 mice, survival T/C. Description: NCI In Vivo Anticancer Drug Screen. Data for tumor model P388 Leukemia (intraperitoneal) in CD2F1 (CDF1) mice. The following applies: endpoint: median survival time, higher = longer survival. The method, boiled down:
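Mice carrying the transplanted tumor received test compound or vehicle. Survival was recorded in each group, and the value is the treated-group measurement divided by that of the vehicle-treated control group.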

The mark [1] stands for this setting: dose: 100.0 mg/kg/injection, schedule: Q01DX009 (ip), vehicle: saline.
The mark [2] stands for this setting: dose: 200.0 mg/kg/injection, schedule: Q01DX009 (ip), vehicle: saline.
The mark [3] stands for this setting: dose: 50.0 mg/kg/injection, schedule: Q01DX005 (ip), vehicle: saline with Tween-80.
Where [4] appears, read: dose: 100.0 mg/kg/injection, schedule: Q01DX005 (ip), vehicle: saline with Tween-80.
Setting [5] is: dose: 200.0 mg/kg/injection, schedule: Q01DX005 (ip), vehicle: saline with Tween-80.
Where [6] appears, read: dose: 60.0 mg/kg/injection, schedule: Q01DX005 (ip), vehicle: saline with Tween-80.
The mark [7] stands for this setting: dose: 120.0 mg/kg/injection, schedule: Q01DX005 (ip), vehicle: saline with Tween-80.
[8] abbreviates: dose: 240.0 mg/kg/injection, schedule: Q01DX005 (ip), vehicle: saline with Tween-80.
The mark [9] stands for this setting: dose: 50.0 mg/kg/injection, schedule: Q01DX009 (ip), vehicle: Klucel (hydroxypropylcellulose) (HPC).

“And” between values parts separate entries of the source, which are not always exact repeats. Identical values can stand only once. Toxic doses and inconclusive results are not listed. Peptide text beside a SMILES is read from it. * marks the point of attachment. Cbz = O=C(OCc1ccccc1)*

Consider `CCN=C(C)C1=C(O)c2ccccc2C1=O`, for which the T/C is, setting by setting: (dose: 100.0 mg/kg/injection, schedule: Q04DX002 (ip), vehicle: saline with Tween-80) 97 % of control; (dose: 200.0 mg/kg/injection, schedule: Q04DX002 (ip), vehicle: saline with Tween-80) 98 % of control; (dose: 400.0 mg/kg/injection, schedule: Q04DX002 (ip), vehicle: saline with Tween-80) 98 % of control.

As for `Cc1cnc(C(N)=O)c(=O)[nH]1`, the T/C reads like this: under setting [1], 95 % of control; (dose: 100.0 mg/kg/injection, schedule: Q04DX003 (ip), vehicle: saline) 105 % of control; under setting [2], 100 % of control; (dose: 200.0 mg/kg/injection, schedule: Q04DX003 (ip), vehicle: saline) 100 % of control; (dose: 400.0 mg/kg/injection, schedule: Q01DX009 (ip), vehicle: saline) 100 % of control; (dose: 400.0 mg/kg/injection, schedule: Q04DX003 (ip), vehicle: saline) 100 % of control.

In the case of `S=C1SCN(CCc2c[nH]c3ccccc23)CN1CCc1c[nH]c2ccccc12`, the T/C under setting [3] was 92 % of control, the T/C under setting [4] is 90 % of control and the T/C under setting [5] was 92 % of control.

In the case of `COC1CC(C)C(OC)c2cc(O)cc(c2O)NC(=O)/C(C)=C/C=C\C(C)C(OC(N)=O)/C(C)=C\C(C)C1OC` (stereo not drawn), the T/C is, setting by setting: (dose: 0.63 mg/kg/injection, schedule: Q01DX009 (ip), vehicle: saline + alcohol) 116 % of control; (dose: 1.25 mg/kg/injection, schedule: Q01DX009 (sc), vehicle: saline + alcohol) 99 % of control; (dose: 2.5 mg/kg/injection, schedule: Q01DX009 (sc), vehicle: saline + alcohol) 93 % of control; (dose: 5.0 mg/kg/injection, schedule: Q01DX009 (sc), vehicle: saline + Tween-80 + alcohol) 94 % of control; (dose: 5.0 mg/kg/injection, schedule: Q01DX009 (sc), vehicle: saline + alcohol) 98 % of control; (dose: 10.0 mg/kg/injection, schedule: Q01DX009 (sc), vehicle: saline + alcohol) 90 % of control. Further, the T/C is 160 % of control (dose: 20.0 mg/kg/injection, schedule: Q01DX009 (ip), vehicle: saline + alcohol); 92 % of control (dose: 20.0 mg/kg/injection, schedule: Q01DX009 (oral), vehicle: saline + Tween-80 + alcohol); 93 % of control (dose: 40.0 mg/kg/injection, schedule: Q01DX009 (oral), vehicle: saline + Tween-80 + alcohol); 92 % of control (dose: 80.0 mg/kg/injection, schedule: Q01DX009 (oral), vehicle: saline + Tween-80 + alcohol); 94 % of control (dose: 160.0 mg/kg/injection, schedule: Q01DX009 (oral), vehicle: saline + Tween-80 + alcohol); 103 % of control (dose: 240.0 mg/kg/injection, schedule: Q01DX009 (oral), vehicle: saline + Tween-80 + alcohol).

Turning to `O=C1c2cc([N+](=O)[O-])cc3cc([N+](=O)[O-])cc(c23)C(=O)N1CCNCCNCCNCCN1C(=O)c2cc([N+](=O)[O-])cc3cc([N+](=O)[O-])cc(c23)C1=O`, the T/C (dose: 12.5 mg/kg/injection, schedule: Q04DX002 (ip), vehicle: saline with Tween-80) is 112 % of control; the T/C (dose: 25.0 mg/kg/injection, schedule: Q04DX002 (ip), vehicle: saline with Tween-80) is 121 % of control; the T/C (dose: 50.0 mg/kg/injection, schedule: Q04DX002 (ip), vehicle: saline with Tween-80) was 122 % of control.

For the compound `CCc1ccc(C(=O)N/N=C(\C)[C@]2(O)Cc3c(O)c4c(c(O)c3[C@@H](OC3CC(N)C(O)C(C)O3)C2)C(=O)c2c(OC)cccc2C4=O)cc1` (stereo partly drawn), the T/C is 111 % of control (dose: 0.12 mg/kg/injection, schedule: Q01DX009 (ip), vehicle: water); 154 % of control and 163 % of control (dose: 1.0 mg/kg/injection, schedule: Q01DX009 (ip), vehicle: water); 160 % of control and 175 % of control (dose: 2.0 mg/kg/injection, schedule: Q01DX009 (ip), vehicle: water); 151 % of control and 175 % of control (dose: 4.0 mg/kg/injection, schedule: Q01DX009 (ip), vehicle: water); 86 % of control and 93 % of control (dose: 8.0 mg/kg/injection, schedule: Q01DX009 (ip), vehicle: water).

Consider `COc1ccc(-n2nc3c(ccc4ccccc43)c2N)cc1`, for which the T/C is 94 % of control under setting [6], 95 % of control under setting [7] and 94 % of control under setting [8].

For the compound `Cc1ccc(N2C(=O)CCSC2=S)cc1Br`, the T/C was 103 % of control (dose: 50.0 mg/kg/injection, schedule: Q01DX009 (ip), vehicle: suspension in saline); 107 % of control (dose: 100.0 mg/kg/injection, schedule: Q01DX009 (ip), vehicle: suspension in saline); 107 % of control (dose: 200.0 mg/kg/injection, schedule: Q01DX009 (ip), vehicle: suspension in saline).

In the case of `CC(C)(C)N=C(CCN1CCOCC1)Nc1ccccc1Cl`, the T/C is, setting by setting: (dose: 50.0 mg/kg/injection, schedule: Q01DX009 (ip), vehicle: saline with Tween-80) 113 % of control; (dose: 100.0 mg/kg/injection, schedule: Q01DX009 (ip), vehicle: saline with Tween-80) 106 % of control; (dose: 200.0 mg/kg/injection, schedule: Q01DX009 (ip), vehicle: saline with Tween-80) 109 % of control.

With `CCC(C)C(NC(=O)C(Cc1ccc(O)cc1)NC(=O)OCc1ccccc1)C(=O)OC` (stereo not drawn) (Cbz-Tyr-Ile-OMe; configuration not given here), the T/C was 106 % of control under setting [3], 92 % of control under setting [4] and 97 % of control under setting [5].

For the compound `CCCCCCCCCCCCCCCCC1(C)c2ccccc2N(C)C12C=Cc1cc([N+](=O)[O-])ccc1O2` (stereo not drawn), the T/C is, setting by setting: (dose: 100.0 mg/kg/injection, schedule: Q04DX003 (ip), vehicle: saline with Tween-80) 103 % of control; (dose: 200.0 mg/kg/injection, schedule: Q04DX003 (ip), vehicle: saline with Tween-80) 100 % of control; (dose: 400.0 mg/kg/injection, schedule: Q04DX003 (ip), vehicle: saline with Tween-80) 100 % of control.

Turning to `Cc1ccc(S(=O)(=O)N/N=C2/C=CC3(CCCCC3)CC2)cc1`, the T/C was 109 % of control under setting [9]; 102 % of control (dose: 100.0 mg/kg/injection, schedule: Q01DX009 (ip), vehicle: Klucel (hydroxypropylcellulose) (HPC)); 111 % of control (dose: 200.0 mg/kg/injection, schedule: Q01DX009 (ip), vehicle: Klucel (hydroxypropylcellulose) (HPC)).

For `Clc1ccc2c3c([nH]c2c1)CCc1cncnc1-3`, the T/C (dose: 100.0 mg/kg/injection, schedule: Q01DX001 (ip), vehicle: Klucel (hydroxypropylcellulose) (HPC)) is 93 % of control; the T/C (dose: 200.0 mg/kg/injection, schedule: Q01DX001 (ip), vehicle: Klucel (hydroxypropylcellulose) (HPC)) was 90 % of control; the T/C (dose: 400.0 mg/kg/injection, schedule: Q01DX001 (ip), vehicle: Klucel (hydroxypropylcellulose) (HPC)) was 90 % of control.

Consider `NC(Cc1ccccc1)C(=O)NC(Cc1ccccc1)C(=O)O` (stereo not drawn) (H-Phe-Phe-OH; configuration not given here), for which the T/C (dose: 50.0 mg/kg/injection, schedule: Q01DX009 (ip), vehicle: saline) is 96 % of control; the T/C under setting [1] was 99 % of control; the T/C under setting [2] was 94 % of control.

For `CS1(C)=NC(=O)c2cc([N+](=O)[O-])ccc2N=1`, the T/C by setting is: under setting [6], 94 % of control; under setting [7], 94 % of control; under setting [8], 92 % of control.

As for `CC1(C)CC23C4COC(=O)C2CCC1C3CC4=O` (stereo not drawn), the T/C (dose: 1.5 mg/kg/injection, schedule: Q01DX009 (ip), vehicle: DMSO) was 94 % of control; the T/C (dose: 3.0 mg/kg/injection, schedule: Q01DX009 (ip), vehicle: DMSO) is 107 % of control and 94 % of control; the T/C (dose: 6.0 mg/kg/injection, schedule: Q01DX009 (ip), vehicle: DMSO) is 104 % of control and 91 % of control; the T/C (dose: 12.0 mg/kg/injection, schedule: Q01DX009 (ip), vehicle: DMSO) was 88 % of control and 95 % of control; the T/C (dose: 24.0 mg/kg/injection, schedule: Q01DX009 (ip), vehicle: DMSO) was 90 % of control; the T/C (dose: 48.0 mg/kg/injection, schedule: Q01DX009 (ip), vehicle: DMSO) was 106 % of control and 91 % of control.

Turning to `NNC(=O)c1ccc(NC(=O)CSc2nc3ccccc3s2)cc1`, the T/C is, setting by setting: (dose: 12.5 mg/kg/injection, schedule: Q01DX009 (ip), vehicle: Klucel (hydroxypropylcellulose) (HPC)) 99 % of control; (dose: 25.0 mg/kg/injection, schedule: Q01DX009 (ip), vehicle: Klucel (hydroxypropylcellulose) (HPC)) 102 % of control; under setting [9], 101 % of control.
